Our source for the IC50 values is patent US12194051B2, “5-azaindazole derivatives as adenosine receptor antagonists” (MERCK PATENT GMBH, priority 2018, dated 2025).

SMILES strings stand for the structures. A value given as a limit tells only on which side of the number the result lay.

One assay has as its target T1, human A2A receptors (Homo sapiens, UniProt P29274).
T1 construct: expressed in transfected cells; host or cells: HEK293
Put plainly: Inhibition of human A2A receptor in recombinant HEK293 cells, cAMP quantification (HTRF). Type of assay: cell-based. The settings on record: read-out: A2A (Category). Here is the method: (§1) The functional activities of human A2A and A2B receptors were determined by quantification of cAMP, being the second messenger for adenosine receptors.
(§2) After a 15 min incubation, HTRF reagents (cAMP dynamic 2, Cis Bio) were added and the cellular cAMP levels were determined using the ENVISION (Perkin Elmer) plate reader.

In a further assay the target is T2, human A2B receptors (Homo sapiens, UniProt P29275).
T2 construct: expressed in transfected cells; host or cells: HEK293
T2 sequence (P29275 1-332): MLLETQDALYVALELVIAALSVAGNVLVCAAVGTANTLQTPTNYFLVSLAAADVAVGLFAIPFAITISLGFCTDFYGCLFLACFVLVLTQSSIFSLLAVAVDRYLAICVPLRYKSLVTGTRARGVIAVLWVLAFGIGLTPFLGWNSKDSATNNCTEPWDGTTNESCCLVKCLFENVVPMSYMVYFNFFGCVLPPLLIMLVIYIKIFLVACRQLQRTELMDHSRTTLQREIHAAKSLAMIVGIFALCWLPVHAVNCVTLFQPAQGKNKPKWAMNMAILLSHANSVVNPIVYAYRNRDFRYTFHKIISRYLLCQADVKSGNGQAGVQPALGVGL
Put plainly: Inhibition of human A2B receptor in recombinant HEK293 cells, cAMP quantification (HTRF). Type of assay: cell-based. The settings on record: read-out: A2B (Category). Here is the method:
as §1, §2
In general terms: TR-FRET usually uses a lanthanide donor and a delayed reading to cut background.

T1 sequence (P29274 whole entry): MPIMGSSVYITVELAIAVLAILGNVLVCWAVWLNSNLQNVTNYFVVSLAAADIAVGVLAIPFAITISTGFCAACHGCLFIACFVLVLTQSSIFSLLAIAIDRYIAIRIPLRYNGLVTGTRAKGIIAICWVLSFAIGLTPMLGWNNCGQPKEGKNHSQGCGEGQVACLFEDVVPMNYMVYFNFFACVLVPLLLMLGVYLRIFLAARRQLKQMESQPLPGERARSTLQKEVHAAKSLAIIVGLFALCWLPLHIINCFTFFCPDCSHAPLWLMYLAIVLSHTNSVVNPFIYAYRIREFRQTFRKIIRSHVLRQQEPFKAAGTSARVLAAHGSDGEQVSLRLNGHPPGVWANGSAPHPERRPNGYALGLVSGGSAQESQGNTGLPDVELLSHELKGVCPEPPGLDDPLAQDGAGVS

Turning to `CS(=O)(=O)Cn1nc(Nc2cc(Cl)ccn2)c2cnc(C(=O)N3CCCOCC3)cc21` [Compound 79, [3-(4-Chloro-pyridin-2-ylamino)-1-methanesulfonylmethyl-1H-pyrazolo[4,3-c]pyridin-6-yl]-[1,4]oxazepan-4-yl-methanone], the IC50 on human A2A receptors and on human A2B receptors was less than 100 nM throughout.
For `CCC1(O)CCN(C(=O)c2cc3c(cn2)c(Nc2cc(F)ccn2)nn3CC(F)(F)F)CC1` [Compound 113, [3-(4-Fluoro-pyridin-2-ylamino)-1-(2,2,2-trifluoro-ethyl)-1H-pyrazolo[4,3-c]pyridin-6-yl]-(4-ethyl-4-hydroxypiperidin-1-yl)-methanone], the IC50 at human A2A receptors and at human A2B receptors was less than 100 nM in each case.
As to `Cc1ccnc(Nc2nn(CC(F)(F)F)c3cc(C(=O)N4CCCOCC4)ncc23)c1` [Compound 68, [3-[(4-methyl-2-pyridyl)amino]-1-(2,2,2-trifluoroethyl)pyrazolo[4,3-c]pyridin-6-yl]-(1,4-oxazepan-4-yl)methanone], the IC50 on human A2A receptors is less than 100 nM; at human A2B receptors it was less than 1000 nM.
In the case of `O=C(c1cc2c(cn1)c(Nc1ccccn1)nn2CC(F)(F)F)N1CC2CCC(C1)O2` [Compound 47, 8-oxa-3-azabicyclo[3.2.1]octan-3-yl-[3-(2-pyridylamino)-1-(2,2,2-trifluoroethyl)pyrazolo[4,3-c]pyridin-6-yl]methanone], the IC50 on human A2A receptors and at human A2B receptors was less than 100 nM throughout.
As to `O=C(c1cc2c(cn1)c(Nc1ccc(F)c(F)c1)nn2CC(F)(F)F)N1CCCOCC1` [Compound 17, [3-(3,4-difluoroanilino)-1-(2,2,2-trifluoroethyl)pyrazolo[4,3-c]pyridin-6-yl]-(1,4-oxazepan-4-yl)methanone], the results for the IC50 on human A2A receptors and on human A2B receptors were less than 100 nM and less than 1000 nM, respectively.
For the molecule `Cc1ccc(Nc2nn(CC(F)(F)F)c3cc(C(=O)N4CCCOCC4)ncc23)cc1F` [Compound 16, [3-(3-fluoro-4-methylanilino)-1-(2,2,2-trifluoroethyl)pyrazolo[4,3-c]pyridin-6-yl]-(1,4-oxazepan-4-yl)methanone], the IC50 at human A2A receptors and at human A2B receptors was less than 100 nM throughout.
Take `N#Cc1cccc(Nc2nn(CC(F)(F)F)c3cc(C(=O)N4CCCOCC4)ncc23)c1` [Compound 8, 3-[[6-(1,4-oxazepane-4-carbonyl)-1-(2,2,2-trifluoroethyl)pyrazolo[4,3-c]pyridin-3-yl]amino]benzonitrile]: the IC50 at human A2A receptors is less than 100 nM; on human A2B receptors, less than 1000 nM.
In the case of `O=C(c1cc2c(cn1)c(Nc1cnc(Cl)cn1)nn2CC(F)(F)F)N1CCC(O)CC1` [Compound 75, [3-(5-Chloro-pyrazin-2-ylamino)-1-(2,2,2-trifluoro-ethyl)-1H-pyrazolo[4,3-c]pyridin-6-yl]-(4-hydroxy-piperidin-1-yl)-methanone], the IC50 on human A2A receptors and on human A2B receptors was less than 100 nM in each case.
`O=C(c1cc2c(cn1)c(Nc1ccc(F)cc1)nn2CC(F)(F)F)N1CCC(O)CC1` [Compound 22, [3-(4-fluoroanilino)-1-(2,2,2-trifluoroethyl)pyrazolo[4,3-c]pyridin-6-yl]-(4-hydroxy-1-piperidyl)methanone]: the IC50 at human A2A receptors and at human A2B receptors was less than 100 nM each time.
Turning to `COc1cc(Nc2nn(CC(F)(F)F)c3cc(C(=O)N4CCCOCC4)ncc23)ncc1F` [Compound 81, [3-[(5-fluoro-4-methoxy-2-pyridyl)amino]-1-(2,2,2-trifluoroethyl)pyrazolo[4,3-c]pyridin-6-yl]-(1,4-oxazepan-4-yl)methanone], the results for the IC50 at human A2A receptors and at human A2B receptors were less than 100 nM and less than 1000 nM, respectively.
The like results for `O=C(c1cc2c(cn1)c(Nc1ccccn1)nn2CC(F)(F)F)N1CCCOCC1` [Compound 42, 1,4-oxazepan-4-yl-[3-(2-pyridylamino)-1-(2,2,2-trifluoroethyl)pyrazolo[4,3-c]pyridin-6-yl]methanone] were, in that order, less than 100 nM and less than 100 nM.
On to `CC1(O)CCN(C(=O)c2cc3c(cn2)c(Nc2ccc(F)cn2)nn3CC(F)(F)F)CC1` [Compound 95, [3-(5-Fluoro-pyridin-2-ylamino)-1-(2,2,2-trifluoro-ethyl)-1H-pyrazolo[4,3-c]pyridin-6-yl]-(4-hydroxy-4-methyl-piperidin-1-yl)-methanone], for which the IC50 on human A2A receptors was less than 100 nM; on human A2B receptors, less than 1000 nM.
The corresponding values for `CS(=O)(=O)Cn1nc(Nc2ccc(F)cn2)c2cnc(C(=O)N3CCCOCC3)cc21` [Compound 77, [3-(5-Fluoro-pyridin-2-ylamino)-1-methanesulfonylmethyl-1H-pyrazolo[4,3-c]pyridin-6-yl]-[1,4]oxazepan-4-yl-methanone] are less than 100 nM and less than 100 nM.
For `COc1cccc(Nc2nn(CC(F)(F)F)c3cc(C(=O)N4CCCOCC4)ncc23)c1` [Compound 7, [3-(3-methoxyanilino)-1-(2,2,2-trifluoroethyl)pyrazolo[4,3-c]pyridin-6-yl]-(1,4-oxazepan-4-yl)methanone], the IC50 on human A2A receptors and at human A2B receptors was less than 100 nM throughout.
For `O=C(c1cc2c(cn1)c(Nc1cc(Cl)ccn1)nn2CC(F)(F)F)N1CCCOCC1` [Compound 64, [3-[(4-chloro-2-pyridyl)amino]-1-(2,2,2-trifluoroethyl)pyrazolo[4,3-c]pyridin-6-yl]-(1,4-oxazepan-4-yl)methanone], the IC50 on human A2A receptors and on human A2B receptors was less than 100 nM throughout.
Regarding `O=C(c1cc2c(cn1)c(Nc1ccc(F)cn1)nn2CC(F)(F)F)N1CCC[C@H](F)C1` [Compound 100, [(3S)-3-fluoro-piperidin-1-yl]-[3-(5-Fluoro-pyridin-2-ylamino)-1-(2,2,2-trifluoro-ethyl)-1H-pyrazolo[4,3-c]pyridin-6-yl]methanone], the IC50 on human A2A receptors is less than 100 nM; at human A2B receptors, less than 1000 nM.
Consider `CS(=O)(=O)Cn1nc(Nc2ccc(Cl)cn2)c2cnc(C(=O)N3CCCOCC3)cc21` [Compound 78, [3-(5-Chloro-pyridin-2-ylamino)-1-methanesulfonylmethyl-1H-pyrazolo[4,3-c]pyridin-6-yl]-[1,4]oxazepan-4-yl-methanone], for which the IC50 at human A2A receptors and at human A2B receptors was less than 100 nM each time.
Take `O=C(c1cc2c(cn1)c(Nc1ccccn1)nn2CC(F)(F)F)N1[C@@H]2CC[C@H]1C[C@@H](O)C2` [Compound 127, (3-endo-hydroxy-8-azabicyclo[3.2.1]octan-8-yl)-[3-(2-pyridylamino)-1-(2,2,2-trifluoroethyl)pyrazolo[4,3-c]pyridin-6-yl]methanone]: the IC50 on human A2A receptors and at human A2B receptors was less than 100 nM throughout.
Take `O=C(c1cc2c(cn1)c(Nc1cncs1)nn2CC(F)(F)F)N1CCCOCC1` [Compound 84, [1,4]Oxazepan-4-yl-[3-(thiazol-5-ylamino)-1-(2,2,2-trifluoro-ethyl)-1H-pyrazolo[4,3-c]pyridin-6-yl]methanone]: the IC50 on human A2A receptors and at human A2B receptors was less than 100 nM in each case.
As to `O=C(c1cc2c(cn1)c(Nc1nccs1)nn2CC(F)(F)F)N1CCCOCC1` [Compound 85, [1,4]Oxazepan-4-yl-[3-(thiazol-2-ylamino)-1-(2,2,2-trifluoro-ethyl)-1H-pyrazolo[4,3-c]pyridin-6-yl]methanone], the IC50 at human A2A receptors and at human A2B receptors was less than 100 nM throughout.
With `O=C(c1cc2c(cn1)c(Nc1cc(F)ccn1)nn2CC(F)(F)F)N1CCCOCC1` [Compound 46, [3-[(4-fluoro-2-pyridyl)amino]-1-(2,2,2-trifluoroethyl)pyrazolo[4,3-c]pyridin-6-yl]-(1,4-oxazepan-4-yl)methanone], the IC50 on human A2A receptors and on human A2B receptors was less than 100 nM each time.
`COc1ccc(Nc2nn(CC(F)(F)F)c3cc(C(=O)N4CCCOCC4)ncc23)nc1` [Compound 83, [3-(5-Methoxy-pyridin-2-ylamino)-1-(2,2,2-trifluoro-ethyl)-1H-pyrazolo[4,3-c]pyridin-6-yl]-[1,4]oxazepan-4-yl-methanone]: the IC50 on human A2A receptors and on human A2B receptors was less than 100 nM each time.
For `O=C(c1cc2c(cn1)c(Nc1ccc(F)c(F)n1)nn2CC(F)(F)F)N1CCCOCC1` [Compound 80, [3-[(5,6-difluoro-2-pyridyl)amino]-1-(2,2,2-trifluoroethyl)pyrazolo[4,3-c]pyridin-6-yl]-(1,4-oxazepan-4-yl)methanone], the IC50 on human A2A receptors and on human A2B receptors was less than 100 nM throughout.
Consider `O=C(c1cc2c(cn1)c(Nc1cccc(F)c1)nn2CC(F)(F)F)N1CC2CCC(C1)O2` [Compound 20, [3-(3-fluoroanilino)-1-(2,2,2-trifluoroethyl)pyrazolo[4,3-c]pyridin-6-yl]-(8-oxa-3-azabicyclo[3.2.1]octan-3-yl)methanone], for which the IC50 was less than 100 nM at human A2A receptors and less than 1000 nM at human A2B receptors.
As for `O=C(c1cc2c(cn1)c(Nc1ccc(F)cn1)nn2CC(F)(F)F)N1CCC[C@@H](CO)C1` [Compound 101, [3-[(5-fluoro-2-pyridyl)amino]-1-(2,2,2-trifluoroethyl)pyrazolo[4,3-c]pyridin-6-yl]-[(3R)-3-(hydroxymethyl)-1-piperidyl]methanone], the IC50 on human A2A receptors and at human A2B receptors was less than 100 nM throughout.
For `O=C(c1cc2c(cn1)c(Nc1ccc(Cl)cc1)nn2CC(F)(F)F)N1CCCOCC1` [Compound 38, [3-(4-chloroanilino)-1-(2,2,2-trifluoroethyl)pyrazolo[4,3-c]pyridin-6-yl]-(1,4-oxazepan-4-yl)methanone], the IC50 at human A2A receptors and at human A2B receptors was less than 100 nM in each case.
